In ChEMBL document CHEMBL3046339, “Insecticidal activity of Maytenus species (Celastraceae) nortriterpene quinone methides against codling moth, Cydia pomonella (L.) (Lepidoptera: tortricidae)” (2000) one finds LC50, mortality and Activity data, which are given here for one compound.

Values after ≈ are worked out from the molar mass of the structure shown.

Format in all cases: functional
For assay [1], the system named is Cydia pomonella. Briefly: Insecticidal activity against Cydia pomonella (codling moth) assessed as mortality treated diet topically measured after 10 days of continuous exposure. To be noted: topical, 240 h.
Assay [2] relates to Cydia pomonella. Briefly: Insecticidal activity against Cydia pomonella (codling moth) assessed as mortality at 20 mg/kg diet topically measured after 10 days of continuous exposure (reference value: 3.3 +/- 3.3%). To be noted: topical, 240 h.
Assay [3] has as its system Cydia pomonella. Briefly: Insecticidal activity against Cydia pomonella (codling moth) at 2 mg/kg assessed as growth regulation measured as number of head capsules of larvae after 10 days of continuous exposure Rvb = (1.5 +/- 0.2%).
Assay [4] concerns Cydia pomonella. The experiment in a line: Insecticidal activity against Cydia pomonella (codling moth) at 6 mg/kg assessed as growth regulation measured as number of head capsules of larvae after 10 days of continuous exposure Rvb = (1.5 +/- 0.2%).
The test system of assay [5] is Cydia pomonella. The experiment in a line: Insecticidal activity against Cydia pomonella (codling moth) assessed as mortality at 6 mg/kg diet topically measured after 10 days of continuous exposure (reference value: 3.3 +/- 3.3%). To be noted: topical, 240 h.
In assay [6] the test system is Cydia pomonella. The experiment in a line: Insecticidal activity against Cydia pomonella (codling moth) assessed as mortality at 1 mg/kg diet topically measured after 10 days of continuous exposure (reference value: 3.3 +/- 3.3%). To be noted: topical, 240 h.
Assay [7] concerns Cydia pomonella. Briefly: Insecticidal activity against Cydia pomonella (codling moth) at 12 mg/kg assessed as growth regulation measured as number of head capsules of larvae after 10 days of continuous exposure Rvb = (1.5 +/- 0.2%).
The subject of assay [8] is Cydia pomonella. Briefly: Antifeedant activity against Cydia pomonella (codling moth) at 8 mg/kg diet topically measured after 10 days of continuous exposure (reference value: 6.7 +/- 6.7%).
For assay [9], the system named is Cydia pomonella. Briefly: Insecticidal activity against Cydia pomonella (codling moth) assessed as mortality at 16 mg/kg diet topically measured after 10 days of continuous exposure (reference value: 3.3 +/- 3.3%). To be noted: topical, 240 h.
Assay [10] relates to Cydia pomonella. The experiment in a line: Insecticidal activity against Cydia pomonella (codling moth) at 20 mg/kg assessed as growth regulation measured as number of head capsules of larvae after 5 days of continuous exposure (reference value: 0.2 +/- 0.2%).
Assay [11] relates to Cydia pomonella. The experiment in a line: Antifeedant activity against Cydia pomonella (codling moth) at 20 mg/kg diet topically measured after 5 days of continuous exposure (reference value: 6.7 +/- 6.7%).
For assay [12], the system named is Cydia pomonella. Briefly: Antifeedant activity against Cydia pomonella (codling moth) at 4 mg/kg diet topically measured after 5 days of continuous exposure (reference value: 6.7 +/- 6.7%).
For assay [13], the system named is Cydia pomonella. The experiment in a line: Antifeedant activity against Cydia pomonella (codling moth) at 20 mg/kg diet topically measured after 10 days of continuous exposure (reference value: 6.7 +/- 6.7%).
In assay [14] the test system is Cydia pomonella. The experiment in a line: Antifeedant activity against Cydia pomonella (codling moth) at 4 mg/kg diet topically measured after 10 days of continuous exposure (reference value: 6.7 +/- 6.7%).
In assay [15] the test system is Cydia pomonella. Briefly: Antifeedant activity against Cydia pomonella (codling moth) at 1 mg/kg diet topically measured after 5 days of continuous exposure (reference value: 6.7 +/- 6.7%).
The subject of assay [16] is Cydia pomonella. Briefly: Antifeedant activity against Cydia pomonella (codling moth) at 12 mg/kg diet topically measured after 10 days of continuous exposure (reference value: 6.7 +/- 6.7%).
For assay [17], the system named is Cydia pomonella. Briefly: Insecticidal activity against Cydia pomonella (codling moth) assessed as mortality at 16 mg/kg diet topically measured after 5 days of continuous exposure (reference value: 0%). To be noted: topical, 120 h.
Assay [18] relates to Cydia pomonella. Briefly: Insecticidal activity against Cydia pomonella (codling moth) assessed as mortality at 18 mg/kg diet topically measured after 10 days of continuous exposure (reference value: 3.3 +/- 3.3%). To be noted: topical, 240 h.
Assay [19] deals with Cydia pomonella. Briefly: Insecticidal activity against Cydia pomonella (codling moth) at 6 mg/kg assessed as growth regulation measured as number of head capsules of larvae after 5 days of continuous exposure (reference value: 0.2 +/- 0.2%).
For assay [20], the system named is Cydia pomonella. Briefly: Insecticidal activity against Cydia pomonella (codling moth) at 1 mg/kg assessed as growth regulation measured as number of head capsules of larvae after 5 days of continuous exposure (reference value: 0.2 +/- 0.2%).

With `CC1=C(O)C(=O)C=C2C1=CC=C1[C@@]2(C)CC[C@@]2(C)[C@@H]3C[C@](C)(O)C(=O)C[C@]3(C)CC[C@]12C` [20ALPHA-HYDROXYTINGENONE], the 50% lethal concentration (LC50) (commonly the concentration that kills 50% of the test population) in the assay on Cydia pomonella [1] worked out at 8500 µg/mL (≈ 19.5 mM). Moreover, the mortality – broadly, the share of the test organisms that died – at 20 mg/kg in the assay on Cydia pomonella [2] was determined as 100%. Further, the Activity in the assay on Cydia pomonella [3] is recorded as 1.4; in the assay with Cydia pomonella [4], 0.6; in the assay with Cydia pomonella [7] it was 0.3; with Cydia pomonella [8], 80%; with Cydia pomonella [10] it was 0; in the assay with Cydia pomonella [11] it was 100%. In addition, the Activity is 46.7% in the assay with Cydia pomonella [12]; 100% with Cydia pomonella [13]; 33.3% in the assay on Cydia pomonella [14]; 6.7% in the assay on Cydia pomonella [15]; 90% in the assay with Cydia pomonella [16]; 0 in the assay with Cydia pomonella [19]. Also, the Activity in the assay on Cydia pomonella [20] was 0.1. Moreover, the mortality at 6 mg/kg in the assay on Cydia pomonella [5] turned out to be 23.3%. Also, the mortality at 1 mg/kg with Cydia pomonella [6] amounted to 3.3%. In addition, the mortality at 16 mg/kg in the assay with Cydia pomonella [9] came out at 93.3%; in the assay with Cydia pomonella [17], 60%. Moreover, the mortality at 18 mg/kg with Cydia pomonella [18] stood at 93.3%.
